Data as given in patent US5235045A, “Non-azo naphthalimide dyes” (priority 1992, dated 1993).
Where two headings read alike, the source gives them in different places.

Assays:
[1] = tested on: Bovine Herpes Virus Type I; assay: Photoinactivation of Bovine Herpes Virus Type I (CPE, TCID50); format: cell-based, Bovine Herpes Virus Type I (BHV-1); conditions: light or radiation study, 10J/cm^2; for killing at 0.035 µM / killing at 0.07 µM / killing at 0.14 µM / killing at 0.27 µM / killing at 0.54 µM / killing at 1.09 µM: read-out: % Inactivation; for killing at 0.07 µM / log reduction at 0.07 µM: 0.070 μM
Procedure: Bovine Herpes Virus Type I (BHV-1). Cell-free and serum-free virus (BHV-1 reference strain from Dr. M. L. Vickers, ADL SDSU) was purified by potassium tartrate gradient ultracentrifugation. Virus was then resuspended in minimal buffer. Compound VII was diluted with ethanol to a concentration of 5 mg/ml. The dye stock solution was prepared by sequentially adding the ethanolic dye solution to fetal bovine serum (FBS), and diluting the dye-FBS mixture with MEM to give 10% FBS in MEM, so that the final concentration of the compound was 500 ng/ml. All dilutions of the dye in the medium were made from this stock solution. Dye/virus mixtures were all prepared as 1:1 mixtures of virus and dye stock solution. The virus was incubated for 30 min at 37° C. prior to irradiation, and then irradiated using a xenon arc lamp to give 10J/cm^2 total irradiative flux. Photomodified virus was then incubated with the appropriate cells (fetal bovine lung - FBL - or MDBK) in 10% FBS in MEM for 1 hour. Then unbound virus was taken off, the cells were washed with Ca/Mg-free PBS, and the cells were then placed in 10% FBS-MEM. The cells were incubated for 24 hours at 37° C. in a 5% CO2 incubator. After 24 and 48 hours, the cells were assayed for cytophathic effect (CPE), and the results expressed in terms of using TCID50 units. The viral inactivation data are expressed in terms of % inactivation in Table 12.

[2] = tested on: H9 cells; assay: Effects on H9 cells of Ed6Br with prior activation by 420 nm light (Trypan Blue); format: cell-based; conditions: Homo sapiens, H9, 24 h, read-out: % Viable Cells
[3] = tested on: H9 cells; assay: Take-up of Ed6Br by H9 cells; format: cell-based, human; conditions: for Cellular Ed6Br: 22° C.
Procedure: H9 cells (an immortal human T-cell lymphoma) were cultured in RPMI-1640 medium containing 10% additional fetal calf serum held in air with a 5% CO2 atmosphere at 37.5° C. to a cell density in the range of 10^5 -10^7 per ml. Cells were harvested by centrifugation and four 3-milliliter aliquots containing 5×10^5 H9 cells per ml suspended in RPM I-1640 medium with 10% additional fetal calf serum were prepared. […] The fourth aliquot served as a dye-free control. Immediately after addition of the dyes, 1 ml samples were harvested from each aliquot and the cells washed by dilution into 3 ml phosphate buffered saline (pH 7.3), followed by two repetitions of centrifugation, decantation of the supernatant, and resuspension of the cell pellet in the buffered saline solution, and a final centrifugation, decantation, and retention of the cell pellet at 4° C. for subsequent analysis. At the subsequent elapsed incubation times at 1, 2, 3, and 4 hrs., one milliliter samples were harvested and treated in an identical fashion. After treatment of the 4-hr. sample, the cells of each sample were lysed in 3 ml of an 0.1% solution of ctyltetraammonium bromide detergent in phosphate buffered saline (pH=7.3). The fluorescence emission at 520 nm (420 nm excitation) of each sample was determined with a SLM SPT 500C spectrofluorometer. Additionally, the emission intensity of samples of these detergent solutions having, respectively, dye concentrations of […] were prepared as standards for calibrating the concentration dependence of the fluorescence emission.

[4] = tested on: H9 cells; assay: Effect of Ed6Br and 420 nm light on H9 cells (Trypan Blue); format: cell-based, human; design: live cells / dead cells: unit not given here
Procedure: H9 cells (an immortal human T-cell lymphoma) were cultured in RPMI-1640 medium containing 10% additional fetal calf serum hold in air with a 5% CO2 atmosphere at 37.5° C. to a cell density in the range of 10^5 -10^7 per ml. Cells were, harvested by centrifugation and six 3ml. […] The remaining 3 samples wrapped in aluminum foil were handled identically but not irradiated. Immediately after irradiation, the cells in all samples were sedimented by centrifugation at 450 x g for 10 minutes and the cell pellets individually resuspended to the original 3 ml volume of RPMI-1640 containing an additional 10% fetal calf serum plus Gentamycin antibiotic. The samples were incubated for 24 hr. under normal culture conditions cited above. Cell viability was assessed by Trypan Blue dye exclusion counts using a standard hemocytometer after 24 hr incubation. […]

[5] = tested on: Gramacidin D; assay: Effects of 420 nm radiation on liposomal-bound Gramacidin D and DiEd6Br fluorescence; format: biochemical; conditions: 100 J/cm^2, 420 nm; for Tryptophan fluorescence ratio irradiated/unirradiated (IT/DT): 0 μM dye 91.23
[6] = 4 hr, external 25 mM (so in the source)
[7] = 5 μM, irradiated 10 J/cm^2, 420 nm
[8] = 25 μM, irradiated 10 J/cm^2, 420 nm

SMILES: CCCCCCNc1c(Br)cc2c3c(cccc13)C(=O)N(CCCCCC)C2=O [Compound VII, 3-bromo-4-(hexyl)amino-N-hexyl-1,8-naphthalimide]
- killing at 0.035 µM ([1]; 24 h): 99.4%
- log reduction at 0.035 µM ([1]; 24 h, read-out: log10 red.): 3.2
- killing at 0.035 µM ([1]; 48 h): 89.9%
- log reduction at 0.035 µM ([1]; 48 h, read-out: log10 red.): 0.95
- killing at 0.07 µM ([1]; 24 h): 99.8%
- log reduction at 0.07 µM ([1]; 24 h, read-out: log10 red.): 3.7
- killing at 0.07 µM ([1]; 48 h): 98.7%
- log reduction at 0.07 µM ([1]; 48 h, read-out: log10 red.): 2
- killing at 0.14 µM ([1]; 24 h): > 100%
- log reduction at 0.14 µM ([1]; 24 h, read-out: log10 red.): > 3.7
- killing at 0.14 µM ([1]; 48 h): 99.4%
- log reduction at 0.14 µM ([1]; 48 h, read-out: log10 red.): 3.2
- killing at 0.27 µM ([1]; 24 h): > 100%
- log reduction at 0.27 µM ([1]; 24 h, read-out: log10 red.): > 3.7
- killing at 0.27 µM ([1]; 48 h): 99.4%
- log reduction at 0.27 µM ([1]; 48 h, read-out: log10 red.): 3.2
- killing at 0.54 µM ([1]; 0.54 μM, 24 h): > 100%
- killing at 0.54 µM ([1]; 0.54 μM, 48 h): > 100%
- log reduction at 0.54 µM ([1]; 0.54 μM, 48 h, read-out: log10 red.): > 3.7
- log reduction at 1.09 µM ([1]; 24 h): > 3.7
- killing at 1.09 µM ([1]; 24 h): > 100%
- log reduction at 1.09 µM ([1]; 48 h): > 3.7
- killing at 1.09 µM ([1]; 48 h): > 100%
- viability at 100 µM ([2]; no previous light activation): 28%
- viability at 100 µM ([2]; previous light activation): 0%
- average dye concentration in H9 cell [3, 6]: about 1.92 millimolar
- cellular over external concentration [3, 6]: approximately 77 times
- increased concentration of the dye by the cell ([3]; 4 hr, external 1 and 5 mm (so in the source)): ~70 fold
- Cellular Ed6Br ([3]; external 1 μM, 0 hr, 1 a° mol = 1 × 10^-18 mol): 91.2 a° mol/cell
- Cellular Ed6Br ([3]; external 1 μM, 1 hr): 130.2 a° mol/cell
- Cellular Ed6Br ([3]; external 1 μM, 2 hr): 189.8 a° mol/cell
- Cellular Ed6Br ([3]; external 1 μM, 3 hr): 186.0 a° mol/cell
- Cellular Ed6Br ([3]; external 1 μM, 4 hr): 208.3 a° mol/cell
- Cellular Ed6Br ([3]; external 5 μM, 0 hr): 165.6 a° mol/cell
- Cellular Ed6Br ([3]; external 5 μM, 1 hr): 385.1 a° mol/cell
- Cellular Ed6Br ([3]; external 5 μM, 2 hr): 437.2 a° mol/cell
- Cellular Ed6Br ([3]; external 5 μM, 3 hr): 468.8 a° mol/cell
- Cellular Ed6Br ([3]; external 5 μM, 4 hr): 548.9 a° mol/cell
- Cellular Ed6Br ([3]; external 25 μM, 0 hr): 316.2 a° mol/cell
- Cellular Ed6Br ([3]; external 25 μM, 1 hr): 716.3 a° mol/cell
- Cellular Ed6Br ([3]; external 25 μM, 2 hr): 1073.4 a° mol/cell
- Cellular Ed6Br ([3]; external 25 μM, 3 hr): 1689.3 a° mol/cell
- Cellular Ed6Br ([3]; external 25 μM, 4 hr): 1748.8 a° mol/cell
- Cells/ml ([4]; 5 μM, dark): 7.70 × 10^5 Cells/ml
- dead cells ([4]; 5 μM, dark): 12
- live cells ([4]; 5 μM, dark): 77
- Cells/ml [4, 7]: 0.0 Cells/ml
- dead cells [4, 7]: 47
- live cells [4, 7]: 0
- Cells/ml ([4]; 25 μM, dark): 9.9 × 10^5 Cells/ml
- dead cells ([4]; 25 μM, dark): 11
- live cells ([4]; 25 μM, dark): 99
- Cells/ml [4, 8]: 0.0 Cells/ml
- dead cells [4, 8]: 41
- live cells [4, 8]: 0
- H9 cells inactivated or killed ([4]; 5 mM or greater (so in the source), activated by light, 1440 min): ~100%
- cytotoxicity at 25 µM ([4]; Homo sapiens, H9, 24 h, 25 µM, dark, printed approximately 10% or less, read-out: cells inactivated in absence of light): ≤ 10%
- viability at 5 µM ([4]; Homo sapiens, H9, light or radiation study, 24 h, 5 μM, irradiated 10 J/cm^2, 420 nm): 0%
- viability at 25 µM ([4]; Homo sapiens, H9, light or radiation study, 24 h, 25 μM, irradiated 10 J/cm^2, 420 nm): 0%

SMILES: CCCCCCN1C(=O)c2cccc3c(NCCNC(=O)CCCCC(=O)NCCNc4c(Br)cc5c6c(cccc46)C(=O)N(CCCCCC)C5=O)c(Br)cc(c23)C1=O [Compound XLIV]
- DiEd6Br fluorescence ratio irradiated/unirradiated (ID/DD) ([5]; 10 μM): 5.03%
- Tryptophan fluorescence ratio irradiated/unirradiated (IT/DT) ([5]; 10 μM): 10.57%
- DiEd6Br fluorescence ratio irradiated/unirradiated (ID/DD) ([5]; 20 μM): 9.24%
- Tryptophan fluorescence ratio irradiated/unirradiated (IT/DT) ([5]; 20 μM): 10.77%
- DiEd6Br fluorescence ratio irradiated/unirradiated (ID/DD) ([5]; 50 μM): 20.26%
- Tryptophan fluorescence ratio irradiated/unirradiated (IT/DT) ([5]; 50 μM): 14.40%
